Experimental data: patent publication US20090023731A1, “SOLUBLE EPOXIDE HYDROLASE INHIBITORS” (Arete Therapeutics, Inc., priority 2007, published 2009)

tested on: soluble epoxide hydrolase (sEH); test: Fluorescent assay for mouse and human soluble epoxide hydrolase (CMNPC substrate); type: biochemical; conditions: inhibitor conc. 50 nM
Experimental: Recombinant mouse sEH (MsEH) and human sEH (HsEH) were produced in a baculovirus expression system as previously reported. […] The expressed proteins were purified from cell lysate by affinity chromatography. […] Protein concentration was quantified using the Pierce BCA assay using bovine serum albumin as the calibrating standard.
The IC50s for each inhibitor were according to the following procedure:
Bis/Tris HCl 25 mM pH 7.0 containing 0.1 mg/mL of BSA (buffer A) CMNPC at 0.25 mM in DMSO.
Mother solution of enzyme in buffer A (Mouse sEH at 6 μg/mL and Human sEH at 5 μg/mL). Inhibitor dissolved in DMSO at the appropriate concentration.
In a black 96 well plate, fill all the wells with 150 μL of buffer A.
Add 2 μL of DMSO in well A2 and A3, and then add 2 μL of inhibitor solution in A1 and A4 through A12.
Add […] of buffer A in row A, then mix several time and transfer […] to row B. Repeat this operation up to row H. The […] removed from row H is discarded.
Add […] of buffer A in column 1 and 2, then add […] of enzyme solution to column 3 to 12.
Incubate the plate for 5 minutes in the plate reader at 30° C.
During incubation prepare the working solution of substrate by mixing 3.68 mL of buffer A (4×0.920 mL) with 266 μL (2×133 μL) of substrate solution).
The velocities are used to analyze and calculate the IC50s.

% Inh [%] | Structure (SMILES)
88 | O=C(Nc1ccc(Cl)cc1)Nc1ccc(OCCCN2CCOCC2)cc1 [Compound 26, 1-(4-Chloro-phenyl)-3-[4-(3-morpholin-4-yl-propoxy)-phenyl]-urea]
99 | O=C(Nc1cccc(OCCCN2CCOCC2)c1)NC12CC3CC(CC(C3)C1)C2 [Compound 47, 1-Adamantan-1-yl-3-[3-(3-morpholin-4-yl-propoxy)-phenyl]-urea]
94 | O=C(Nc1ccc(Cl)cc1)Nc1cccc(OCCCN2CCOCC2)c1 [Compound 15, 1-(4-Chloro-phenyl)-3-[3-(3-morpholin-4-yl-propoxy)-phenyl]-urea]
91 | O=C(Nc1ccc(OCCCN2CCOCC2)cc1)Nc1ccc(OC(F)(F)F)cc1 [Compound 34, 1-[4-(3-Morpholin-4-yl-propoxy)-phenyl]-3-(4-trifluoromethoxy-phenyl)-urea]
90 | O=C(Nc1ccc(OC(F)(F)F)cc1)Nc1cccc(OCCCN2CCOCC2)c1 [Compound 28, 1-[3-(3-Morpholin-4-yl-propoxy)-phenyl]-3-(4-trifluoromethoxy-phenyl)-urea]
96 | O=C(Nc1ccc(OCCCN2CCOCC2)cc1)Nc1ccc(C(F)(F)F)cc1 [Compound 21, 1-[4-(3-Morpholin-4-yl-propoxy)-phenyl]-3-(4-trifluoromethyl-phenyl)-urea]
83 | O=C(Nc1ccc(F)c(OCCCN2CCOCC2)c1)NC1CCCCC1 [Compound 54, 1-Cyclohexyl-3-[4-fluoro-3-(3-morpholin-4-yl-propoxy)-phenyl]-urea]
79 | O=C(Nc1ccc(OCCCN2CCOCC2)cc1)NC1CCCCC1 [Compound 45, 1-Cyclohexyl-3-[4-(3-morpholin-4-yl-propoxy)-phenyl]-urea]

Further lines, the molecule ahead of its results:

Structure (SMILES) | % Inh [%]
O=C(Nc1cccc(OCCCN2CCOCC2)c1)Nc1ccc(F)c(F)c1 [Compound 4, 1-(3,4-Difluoro-phenyl)-3-[3-(3-morpholin-4-yl-propoxy)-phenyl]-urea] | 75
O=C(NC1CCCC(OCCCN2CCOCC2)C1)NC12CC3CC(CC(C3)C1)C2 (stereo not drawn) [Compound 48, 1-Adamantan-1-yl-3-[3-(3-morpholin-4-yl-propoxy)-cyclohexyl]-urea] | 94
O=C(CC12CC3CC(CC(C3)C1)C2)Nc1cccc(OCCCN2CCOCC2)c1 [Compound 43, 2-Adamantan-1-yl-N-[3-(3-morpholin-4-yl-propoxy)-phenyl]-acetamide] | 93
O=C(CC12CC3CC(CC(C3)C1)C2)NC1CCCC(OCCCN2CCOCC2)C1 (stereo not drawn) [Compound 49, 2-Adamantan-1-yl-N-[3-(3-morpholin-4-yl-propoxy)-cyclohexyl]-acetamide] | 79
O=C(Nc1ccc(C(F)(F)F)cc1)Nc1cccc(OCCCN2CCOCC2)c1 [Compound 9, 1-[3-(3-Morpholin-4-yl-propoxy)-phenyl]-3-(4-trifluoromethyl-phenyl)-urea] | 82
O=C(Nc1ccc(OC(F)(F)F)cc1)Nc1ccc(F)c(OCCCN2CCOCC2)c1 [Compound 33, 1-[4-Fluoro-3-(3-morpholin-4-yl-propoxy)-phenyl]-3-(4-trifluoromethoxy-phenyl)-urea] | 83

same assay, conditions: inhibitor conc. 200 nM

% Inh [%] | Structure (SMILES)
89 | O=C(NCCc1ccc(OCc2ccccc2)cc1)NCCC12CC3CC(CC(C3)C1)C2 [Compound 72, 1-(4-(benzyloxy)phenethyl)-3-(adamantylethyl)urea]

same assay, conditions: inhibitor conc. 500 nM

% Inh [%] | Structure (SMILES)
83 | O=C(Cc1ccc(C(F)(F)F)cc1)Nc1ccc(OCCCN2CCOCC2)cc1 [Compound 27, N-[4-(3-Morpholin-4-yl-propoxy)-phenyl]-2-(4-trifluoromethyl-phenyl)-acetamide]
90 | O=C(Nc1ccccc1)Nc1ccc(OCCCN2CCOCC2)cc1 [Compound 14, 1-[4-(3-Morpholin-4-yl-propoxy)-phenyl]-3-phenyl-urea]
66 | O=C(Nc1ccc(OCCN2CCOCC2)cc1)Nc1cccc(OCCCN2CCOCC2)c1 [Compound 18, 1-[4-(2-Morpholin-4-yl-ethoxy)-phenyl]-3-[3-(3-morpholin-4-yl-propoxy)-phenyl]-urea]
72 | O=C(Cc1ccc(Cl)cc1)Nc1ccc(OCCCN2CCOCC2)cc1 [Compound 20, 2-(4-Chloro-phenyl)-N-[4-(3-morpholin-4-yl-propoxy)-phenyl]-acetamide]

Further lines, the molecule ahead of its results:

Structure (SMILES) | % Inh [%]
O=C(Nc1cccc(OCCCN2CCOCC2)c1)Nc1ccc2c(c1)OCO2 [Compound 8, 1-Benzo[1,3]dioxol-5-yl-3-[3-(3-morpholin-4-yl-propoxy)-phenyl]-urea] | 91
O=C(Nc1ccc(F)cc1)Nc1ccc(F)c(OCCCN2CCOCC2)c1 [Compound 31, 1-[4-Fluoro-3-(3-morpholin-4-yl-propoxy)-phenyl]-3-(4-fluoro-phenyl)-urea] | 78
O=C(Nc1cccc(OCCCN2CCOCC2)c1)Nc1ccc(F)cc1F [Compound 5, 1-(2,4-Difluoro-phenyl)-3-[3-(3-morpholin-4-yl-propoxy)-phenyl]-urea] | 78
S=C(Nc1cccc(OCCCN2CCOCC2)c1)NC12CC3CC(CC(C3)C1)C2 [Compound 61] | 96
O=C(Nc1cccc(OCCCN2CCOCC2)c1)c1ccc(C(F)(F)F)cc1 [Compound 36, N-[3-(3-Morpholin-4-yl-propoxy)-phenyl]-4-trifluoromethyl-benzamide] | 79
O=C(Cc1ccc(OC(F)(F)F)cc1)Nc1cccc(OCCCN2CCOCC2)c1 [Compound 23, N-[3-(3-Morpholin-4-yl-propoxy)-phenyl]-2-(4-trifluoromethoxy-phenyl)-acetamide] | 86
O=C(CNC12CC3CC(CC(C3)C1)C2)Nc1cccc(OCCCN2CCOCC2)c1 [Compound 58, 2-(Adamantan-1-ylamino)-N-[3-(3-morpholin-4-yl-propoxy)-phenyl]-acetamide] | 81
O=C(Nc1ccc(Oc2cccc(C(=O)O)c2)cc1)Nc1ccc(C(F)(F)F)cc1 [Compound 60, 3-(4-(3-(4-(trifluoromethyl)phenyl)ureido)phenoxy)benzoic acid] | 92
O=C(Nc1ccccc1)Nc1ccc(F)c(OCCCN2CCOCC2)c1 [Compound 29, 1-[4-Fluoro-3-(3-morpholin-4-yl-propoxy)-phenyl]-3-phenyl-urea] | 73
O=C(Nc1ccc(Cl)cc1)Nc1ccc(F)c(OCCCN2CCOCC2)c1 [Compound 30, 1-(4-Chloro-phenyl)-3-[4-fluoro-3-(3-morpholin-4-yl-propoxy)-phenyl]-urea] | 96

same assay, conditions: inhibitor conc. 2000 nM

% Inh [%] | Structure (SMILES)
95 | O=C(Nc1ccc(C(F)(F)F)cc1)N[C@H]1CC[C@H](Oc2ccc(C(=O)O)cc2)CC1 [Compound 75]
100 | O=C(Nc1ccc(OC(F)(F)F)cc1)N[C@H]1CC[C@H](Oc2ccc(C(=O)O)cc2)CC1 [Compound 74, 4-((1r,4r)-4-(3-(4-(trifluoromethoxy)phenyl)ureido)cyclohexyloxy)benzoic acid]
100 | O=C(Nc1ccc(C(F)(F)F)cc1)Nc1cccc(Oc2ccc(C(=O)O)cc2)c1 [Compound 69, 4-(3-(3-(4-(trifluoromethyl)phenyl)ureido)phenoxy)benzoicacid]

same assay, conditions: inhibitor conc. 5000 nM

% Inh [%] | Structure (SMILES)
79 | CC(C)(C)NC(=O)Nc1cccc(OCCCN2CCOCC2)c1 [Compound 42, 1-tert-Butyl-3-[3-(3-morpholin-4-yl-propoxy)-phenyl]-urea]
80 | O=C(Cc1ccccc1)Nc1ccc(OCCCN2CCOCC2)cc1 [Compound 25, N-[4-(3-Morpholin-4-yl-propoxy)-phenyl]-2-phenyl-acetamide]
94 | O=C(Nc1cccc(OCCCN2CCOCC2)c1)C1CCCCC1 [Compound 56, Cyclohexanecarboxylicacid [3-(3-morpholin-4-yl-propoxy)-phenyl]-amide]

The next lines start with the molecule.

Structure (SMILES) | % Inh [%]
O=C(Nc1cccc(OCCCN2CCOCC2)c1)Nc1c(F)c(F)c(F)c(F)c1F [Compound 7, 1-[3-(3-Morpholin-4-yl-propoxy)-phenyl]-3-pentafluorophenyl-urea] | 87
O=C(Cc1ccc(OC(F)(F)F)cc1)Nc1ccc(OCCCN2CCOCC2)cc1 [Compound 35, N-[4-(3-Morpholin-4-yl-propoxy)-phenyl]-2-(4-trifluoromethoxy-phenyl)-acetamide] | 93
O=C(Cc1ccc2c(c1)OCO2)Nc1cccc(OCCCN2CCOCC2)c1 [Compound 12, 2-Benzo[1,3]dioxol-5-yl-N-[3-(3-morpholin-4-yl-propoxy)-phenyl]-acetamide] | 87
O=C(Cc1ccc(F)c(F)c1)Nc1cccc(OCCCN2CCOCC2)c1 [Compound 19, 2-(3,4-Difluoro-phenyl)-N-[3-(3-morpholin-4-yl-propoxy)-phenyl]-acetamide] | 92
O=C(Cc1ccc(F)cc1)Nc1cccc(OCCCN2CCOCC2)c1 [Compound 11, 2-(4-Fluoro-phenyl)-N-[3-(3-morpholin-4-yl-propoxy)-phenyl]-acetamide] | 85
CN(C)c1cccc(NC(=O)Nc2cccc(OCCCN3CCOCC3)c2)c1 [Compound 17, 1-(3-Dimethylamino-phenyl)-3-[3-(3-morpholin-4-yl-propoxy)-phenyl]-urea] | 95

same assay, conditions: inhibitor conc. 50000 nM

% Inh [%] | Structure (SMILES)
75 | O=C(Cc1cccnc1)Nc1cccc(OCCCN2CCOCC2)c1 [Compound 13, N-[3-(3-Morpholin-4-yl-propoxy)-phenyl]-2-pyridin-3-yl-acetamide]
